Literature values in paper PMC9177108 (The Oncologist, 2022).
Where two headings read alike, the source gives them in different places.

Legend:
[1] = test system: patients with advanced solid tumors; details: cited from earlier work
FGFR = details: AL3810 compared with sorafenib; cited from earlier work

CNC(=O)c1cccc2cc(Oc3ccnc4cc(OCC5(N)CC5)c(OC)cc34)ccc12 [Lucitanib]
tolerability of continuous dosing ([1]; continuous 15 mg daily dose, arterial hypertension): unsustainable beyond three cycles | partial response / ORR ([1]; patients with FGF-aberrant (FGFR1- or FGF3/4/19-amplified) breast cancer): 50% | median PFS ([1]; patients with FGF-aberrant breast cancer): 40.4 weeks | median PFS ([1]; patients with angiogenesis-sensitive disease): 25 weeks | potency against FGFR (FGFR): more potent
